Legend:
[1] = Odor and H2S generation (H2S test strip) of cystine / cystine derivative samples; type: physicochemical; settings: summary of the Examples; monitored as H2S
Procedure: Evaluation of Cystine Crystallization and Odor in the Presence of Cystine Derivatives Samples for cystine crystallization evaluation were prepared by dissolving cystine (10 mg) alone or in combination with NDAC (N,N′-diacetyl-L-cystine) (55 mg), NACys (N-acetyl-L-cysteine) (28 mg) or L-cystine diethyl ester dihydrochloride (DEC) (62 mg) in 0.775M NaOH (1 ml) or Epilife™ cell culture media (60 uM calcium chloride, HEPES/bicarbonate buffered; Thermofisher Scientific) (1 ml) and the pH adjusted to 7.0 by adding HCl (12.1M). A hydrogen sulfide (H2S) test strip (Sigma) was placed above the sample solution and the samples sealed. Visual appearance, odor and H2S generation (unchanged test strip white color=no H2S generated; changed test strip brown/black color=H2S generated) were monitored up to 4 months and recorded.

[2] = at 25° C.; cited from earlier work
[3] = according to Zhu, et al.; cited from earlier work

Row | Compound | odor of the cystine derivative, in words [1] | also measured
1 | CC(=O)N[C@@H](CS)C(=O)O [NACys, N-Acetyl-L-Cysteine] | upleasant sulfurous odor | 
2 | N[C@@H](CSSC[C@H](N)C(=O)O)C(=O)O [cystine, L-Cystine] |  | solubility of cystine in water [2]: 112 µg/mL
3 | CC(=O)N[C@@H](CSSC[C@H](NC(C)=O)C(=O)O)C(=O)O [NDAC, N,N′-Diacetyl-L-Cystine] |  | inhibitor of cystine crystal growth [3]: not effective
4 | CCOC(=O)[C@@H](N)CSSC[C@H](N)C(=O)OCC [DEC, L-Cystine diethyl ester] | unpleasant sulfurous odor | 

— patent US20230157939A1, “PERSONAL CARE COMPOSITIONS WITH ENHANCED SOLUBILITY ACTIVES” (Conopco, Inc., d/b/a UNILEVER, priority 2020, published 2023)
